Measured values as given in patent US20200383969A1, “RIMEGEPANT FOR CGRP RELATED DISORDERS” (Biohaven Pharmaceutical Holding Company Ltd., priority 2018, published 2020).

Experiments:
[1] = Pooled liver function test profile, Studies 301 and 302; format: in vivo, human; settings: pooled Studies 301+302; n = 1089
Description: Results from Clinical Trials—The study results from the clinical studies described in Example 2 and Example 3 are set forth in FIG. 1, FIG. 2 and Table 2, Table 3 and Table 4.
(§1) In a double-blind, randomized, placebo-controlled, multicenter study (Study 301, NCT03235479) adults ≥18 years of age with at least a 1-year history of ICHD 3-beta migraine were eligible to participate. Following a 3- to 28-day screening period, subjects were randomized to receive rimegepant 75 mg or matching placebo and instructed to treat a single migraine attack with 1 dose of the blinded study drug (rimegepant or placebo) when headache pain reached moderate or severe intensity. The coprimary endpoints were pain freedom at 2 hours postdose and freedom from the most bothersome symptom (MBS) at 2 hours postdose. Safety assessments included adverse events (AEs), ECGs, vital signs, physical measurements, and routine laboratory tests, including assessment of liver function. Unless stated otherwise, values presented are mean ±SD.
as §1, with “302, NCT03237845)” for “301, NCT03235479)”

[2] = Study 301 (BHV3000-301), Phase 3, rimegepant 75 mg tablet vs placebo, acute treatment of migraine; format: in vivo, human
Source text: Clinical Trial—BHV3000-301: Phase 3: Double-Blind, Randomized, Placebo-Controlled, Safety and Efficacy Trial of BHV-3000 (Rimegepant) for the Acute Treatment of Migraine (ClinicalTrials.gov Identifier: NCT03235479). • Study Type: Interventional (Clinical Trial) • Actual Enrollment: 1490 participants • Allocation: Randomized • Intervention Model: Parallel Assignment • Intervention Model Description: Double-blind to Sponsor, Investigator and Subject Randomized Controlled Trial • Masking: Triple (Participant, Care Provider, Investigator) • Masking Description: Double-blind to Sponsor, Investigator and Subject • Primary Purpose: Treatment • Official Title: BHV3000-301: Phase 3: Double-Blind, Randomized, Placebo-Controlled, Safety and Efficacy Trial of BHV-3000 (Rimegepant) for the Acute Treatment of Migraine • 1. Pain freedom of rimegepant (75 mg tablet) compared with placebo in the acute treatment of migraine will be measured using the number of evaluable subjects that report no pain at 2 hours post-dose. [Time Frame: Two hours post dose] • Pain will be measured on a 4 point Likert scale (0=none, 1=mild, 2=moderate, 3=severe) • 2. Freedom from the most bothersome symptom (MBS) of rimegepant (75 mg tablet) compared with placebo will be measured using the number of evaluable subjects that report the absence of their MBS at 2 hours post-dose. [Time Frame: Two hours post dose] • The MBS (nausea, phonophobia or photophobia) will measured using a binary scale (0=absent, 1=present). • 1. […] [Time Frame: 2 hours-24 hours post-dose] • Sustained Pain Freedom as measured by a 4 point numeric rating scale (None, Mild, Moderate, Severe) • 2. The difference between rimegepant (75 mg tablet) compared to placebo by tabulating the absence of photophobia at 2 hours post-dose in the subset of subjects that reported the presence of photophobia at headache baseline. [Time Frame: 2 hours post-dose] • Photophobia • 3. To evaluate rimegepant (75 mg tablet) compared to placebo by tabulating the number of subjects that report the absence of phonophobia at 2 hours post-dose in the subset of subjects that reported the presence of phonophobia at headache baseline. [Time Frame: 2 hours post-dose] • Phonophobia • 4. To measure the difference between rimegepant (75 mg tablet) compared to placebo on Pain Relief, at 2 hours post-dose, for those that report a pain level of moderate or severe at baseline and then report a pain level of none or mild. [Time Frame: 2 hours post-dose] • Pain Relief as measured by a 4 point numeric rating scale (None, Mild, Moderate, Severe) • 5. Freedom from Nausea by tabulating the number of subjects that report the absence of nausea at 2 hours post-dose in the subset of subjects that reported the presence of nausea at headache baseline. [Time Frame: 2 hours post-dose] • Freedom from Nausea • 6. The difference between rimegepant (75 mg tablet) compared to placebo on the probability of requiring rescue medication using the number of subjects that take rescue medication within […] administration of study medication (BHV3000 or placebo). [Time Frame: up to 24 hours post-dose] • Requiring Rescue Medication • 7. […] [Time Frame: 2 hours-24 hours post-dose] • Sustained Pain Freedom • 8. […] [Time Frame: 2 hours-24 hours post-dose] • Sustained Pain Relief as measured by a 4 point numeric rating scale (None, Mild, Moderate, Severe) • 9. […] [Time Frame: 2 hours-48 hours post-dose] • Sustained Pain Relief as measured by a 4 point numeric rating scale (None, Mild, Moderate, Severe) • 10. To measure the difference between rimegepant (75 mg tablet) relative to placebo on the proportion of subjects able to function normally, at 2 hours, using the number of subjects that self-report as “normal” on the functional disability scale. [Time Frame: 2 hours post-dose] • Functional Disability Score • 11. […]

[3] = both subjects not dosed before onset

## N[C@@H]1c2cccnc2[C@H](OC(=O)N2CCC(n3c(=O)[nH]c4ncccc43)CC2)CC[C@H]1c1cccc(F)c1F [Rimegepant, [(5S,6S,9R)-5-amino-6-(2,3-difluorophenyl)-6,7,8,9-tetrahydro-5H-cyclohepta[b]pyridin-9-yl] 4-(2-oxo-3H-imidazo[4,5-b]pyridin-1-yl)piperidine-1-carboxylate]
[1]
  ALT >3 × ULN, subjects: 0.1%
  ALT >ULN, subjects: 2.0%
  AST >3 × ULN, subjects: 0.1%
  AST >ULN, subjects: 1.1%
[2]
  SAEs related to the study drug: No SAE
[2]; 75 mg tablet
  AE dizziness, incidence: 0.7%
  AE dizziness, n/N: 4/546
  AE nausea, incidence: 0.9%
  AE nausea, n/N: 5/546
  Bilirubin elevations >2 times ULN: No bilirubin elevations
  Serum ALT or AST > ULN, n/N: 11/546
  Serum ALT or AST > ULN, subjects: 2.0%
  Transaminase level >3 times ULN, number of subjects: One
  Transaminase level >3 times ULN, subjects: 0.2%
  Transaminase level >5 times ULN: no subject
[2]; P<0.0001
  Normal function at 2 hours (functional disability) vs placebo: greater proportion
[2]; [3]
  Serious AEs, number of subjects: 2
  Serious AEs, subjects: 0.4%
[2]; single dose, no rescue medication, P=0.0003
  Sustained pain relief from 2 through 48 hours postdose vs placebo: superiority versus placebo
[2]; single dose, no rescue medication, P=0.013
  Sustained pain freedom from 2 through 48 hours postdose vs placebo: superiority versus placebo
